Type in all cases: in vivo
For one assay, the system named is Aonidiella aurantii. In words: Example 15: orange trees treated against Aonidiella aurantii. Particulars: on fruits, % a.i.: Tokuthion 0.048 (once), I-9 0.0096, I-2 0.0096 (two applications). The procedure:
In three replications, 3-year-old orange trees of the cultivar “Midnight Valenzia” are treated against Aonidiella aurantii. Two applications are carried out at an interval of 72 days, using a motor-operated knapsack sprayer. Here, the active compounds Example (I-9) (240 SC) and Example (I-2) (240 SC) in a tank mix with 0.1% a.i. of rapeseed oil methyl ester (500 EW) at the stated application rate are tested against the standard Tokuthion (960 EC) at the stated amounts. applied once. The application rate is 4 l of water per tree.
Evaluation is carried out 130 and 176 days after the treatment by rating the kill on the fruits.

Assay [1] concerns Pseudaulacaspis pentagona. In words: Example 24: tea plants treated against Pseudaulacaspis pentagona. Conditions: crawlers on tea plants, % a.i.: Supracide EC 0.04, I-4 0.01. The procedure: In nine replications, about 7-week-old tea plants of the cultivar “Yakubita” are treated against Pseudaulacaspis pentagona. Here, the active compound Example (I-4) (200 SC) is tested against the commercial standard Supracide EC (400 EC) at the stated application rates. The application is carried out using a sprayer operated with pressurized air. Evaluation is carried out 16 and 35 days after the treatment by rating the kill of the crawlers on the plants.

The subject of assay [2] is Myzus persicae. The assay is described as follows: Example 46: head lettuce treated against Myzus persicae. Conditions: nymphs on plants, g a.i./ha: endosulfan 1120, I-4 48. The procedure:
In four replications, plots of a size of about 33 m^2 with head lettuce of the cultivar “PIC 714” are treated against Aulacorthum solani, Macrosiphum euphorbiae and Myzus persicae. The application is carried out using a tractor sprayer. Here, the active compound Example (I-4) (240 SC), in a tank mix with 0.2% a.i. of rapeseed oil methyl ester (500 EW), is tested against the commercial standard endosulfan (360 EC), at the stated application rates. The application rate is 187 l of water/ha. Two treatments are carried out, at an interval of 22 days.
Evaluation is carried out 8, 22, 30 and 40 days after the first treatment by rating the kill of the nymphs on the plants.

Assay [3] deals with Quadraspidiotus perniciosus. In words: Example 21: almond tree treated against Quadraspidiotus perniciosus. Conditions: on branches, per metre crown height: Dursban 2240 g/ha, I-4 110 g/ha. The procedure:
In four replications, an about 20-year-old almond tree of the cultivar “Non-Pareil” is treated against Quadraspidiotus perniciosus. The application is carried out using a high-pressure sprayer. Here, the active compound Example (I-4) (240 SC) in a tank mix with 0.125% a.i. of methylated seed oil (1000 EC) and the commercial standard Lorsban (480 EC) are tested at the stated application rates. The amount of spray liquor is 935 l/ha.
Evaluation is carried out 21, 42 and 63 days after the treatment by rating the kill of the animals on the branches.

The test system of another assay is Saissetia oleae. In words: Example 13: orange trees treated against Saissetia oleae. Particulars: nymphs on leaves, g a.i./ha/m crown height: buprofezin 500, I-4 72, I-8 30. The procedure: In three replications, in each case two about 8-year-old orange trees are treated against Saissetia oleae. Here, the active compounds Example (I-4) (240 SC) and Example (I-8) (250 SC) in a tank mix with 0.2% a.i. of rapeseed oil methyl ester (500 EW) at the stated application rate are tested against the commercial standard buprofezin in a tank mix with 0.4% a.i. of Oliocin (800 EW) at the stated application rate. The application is carried out using a motor-operated knapsack sprayer. The application rate is 3000 l of water/ha. Two treatments are carried out, at an interval of 29 days.
Evaluation is carried out 24 and 44 days after the last treatment by rating the kill of the nymphs on the leaves.

For assay [4], the system named is Myzus persicae. The assay is described as follows: Example 49: potatoes treated against Myzus persicae. Conditions: live nymphs on leaves, Henderson and Tilten, g a.i./ha: Tamaron 585, I-4 48. As to the method: In four replications, plots of a size of about 7.5 m^2 with potatoes of the cultivar “BP 1” are treated against Myzus persicae. The application is carried out using a knapsack sprayer operated with pressurized air. Here, the active compound Example (I-4) (240 SC), in a tank mix with 0.2% a.i. of rapeseed oil methyl ester (500 EW), and the commercial standard Tamaron (585 SL) are tested at the stated application rates. Two applications are carried out, at an interval of 7 days. The application rate is 500 l of water/ha.
Evaluation is carried out 7 and 13 days after the first treatment by counting the live animals (nymphs) on the leaves. The efficacy is then calculated by calculating the effect on the population in percent according to Henderson and Tilten.

The next assay deals with Rhodobium porosum. In words: Example 55: strawberry plants treated against Rhodobium porosum. Conditions: nymphs on strawberry plants, g a.i./ha: Calypso 120, I-4 75. The procedure: In four replications, plots of a size of about 3 m^2 with 3-week-old strawberry plants are treated against Macrosiphum euphorbiae and Rhodobium porosum. The application is carried out using a knapsack sprayer operated with pressurized air. Here, the active compound Example (I-4) (150 OD) and the commercial standard Calypso (480 SC) are tested at the stated application rates. Here, the standard is sprayed as a tank mix with 0.03% of Motto (adjuvant). The application rate is 500 l of water/ha.
Evaluation is carried out 7 and 14 days after the second treatment by rating the kill of the nymphs on the plants.

The next assay has as its system Pemphigus bursarius. In words: Example 3: chrysanthemums, lettuce root aphid. Conditions: on roots, spray on above-ground parts 96 g of a.i./ha. The procedure:
In three replications, in each case 10 about 5-month-old chrysanthemums (Camilla) in 2 l-vessels are treated against the lettuce root aphid Pemphigus bursarius. Here, the active compound Example (I-4) (240 SC) is applied with a knapsack sprayer operated by pressurized air at the beginning of the infestation at the stated application rates to the above-ground parts of the plants. The soil is covered with a film. The application rate is 600 l of water/ha. 0.1% a.i. of rapeseed oil methyl ester (500 EW) is added to the spray liquor. Omethoate as drip irrigation in a concentration of 0.1% is used for comparison. The application is carried out two days later.
The kill in percent is determined on the roots. […]

We go through two compounds from patent US20090012152A1, “Use of Tetramic Acid Derivatives for Controlling Insects from the Genus of the Plane Lice (Sternorrhyncha)” (Bayer CropScience Aktiengesellschaft, priority 2005, published 2009).

In the case of `CCOC(=O)OC1=C(c2cc(C)ccc2Br)C(=O)NC12CCC(OC)CC2` (stereo not drawn) [Example (I-2)], the “Kill (%) 130 d” value with Aonidiella aurantii (130 d after treatment) came out at 52%. In addition, the “Kill (%) 176 d” value with Aonidiella aurantii (176 d after treatment) is given as 76%.

For the compound `CCOC(=O)OC1=C(c2cc(C)ccc2C)C(=O)NC12CCC(OC)CC2` (stereo not drawn) [Example (I-4)], the “Kill (%) 16 d” value in assay [1] (16 d after treatment) was 81.8%. Also, the “Kill (%) 35 d” value in assay [1] (35 d after treatment) is 75%. In addition, in the assay on Myzus persicae [2] (8 d after first of two treatments), the “Kill (%) 8 d” value was found to be 95%. The “Kill (%) 22 d” value with Myzus persicae [2] (22 d after first of two treatments) came out at 100%. Further, the “Kill (%) 30 d” value in the assay on Myzus persicae [2] (30 d after first of two treatments) was 88%. Moreover, the “Kill (%) 21 d” value in assay [3] (21 d after treatment) worked out at 84.9%. Moreover, the “Kill (%) 42 d” value in assay [3] (42 d after treatment) is 90%. In addition, in assay [3] (63 d after treatment), the “Kill (%) 63 d” value was found to be 94.6%. The “Kill (%) 24 d” value in the assay on Saissetia oleae (24 d after last of two treatments) was found to be 53.5%. Also, the “Kill (%) 44 d” value in the assay with Saissetia oleae (44 d after last of two treatments) is recorded as 56.1%. For the same compound, the “Effect (%) 7 d” value with Myzus persicae [4] (7 d after first of two treatments) turned out to be 67%. The “Effect (%) 13 d” value in the assay with Myzus persicae [4] (13 d after first of two treatments) worked out at 100%. Besides, the “Rhodobium porosum Kill (%) 7 d” value with Rhodobium porosum (7 d after second treatment) turned out to be 97%. In addition, in the assay with Rhodobium porosum (14 d after second treatment), the “Rhodobium porosum Kill (%) 14 d” value was determined as 96%. In the assay on Pemphigus bursarius (9 d), the “Kill (%) 9 d” value is recorded as 46.9 (9 d) %. The “Kill (%) (17 d)” value with Pemphigus bursarius (17 d) was 80.4 (17 d) %.
